Measurements: patent US20190151304A1, “METHODS AND PHARMACEUTICAL COMPOSITIONS FOR THE TREATMENT OF AUTOIMMUNE INFLAMMATORY” (INSERM (INSTITUT NATIONAL DE LA SANTÉ ET DE LA RECHERCJAE …, priority 2016, published 2019)
No end group written: not given here.

Key:
[1] = system: cerulein-induced chronic pancreatitis mice; assay: Chronic pancreatitis mice model induced by cerulein; assay type: in vivo
Source text: FIG. 9. Pancreatic lymphocyte infiltration determined by immunostaining of CD45+ cells. Values were expressed as percentage of stained surface. **, p<0.01
FIG. 10: Amylase activity in blood samples of control mice, cerulein-induced mice and cerulein-induced mice treated with OxA. *, p<0.05; ***, p<0.001 and NS, non significant.
We have investigated the effect of orexin A (OxA) on chronic pancreatitis mice model induced by supraphysiologic doses of cerulein (3 intraperitoneal injections/week at 100 μg/kg). […] In mice treated by OxA (2 intraperitoneal injections/week at 1.40 μmol/Kg) the lesions induced by cerulein improved. OxA-treated mice had lower number of acino-ductal metaplasia.

OX1R = target: T1, OX1R (Homo sapiens, UniProt O43613, A280G); assay: Ca2+ mobilization assay in HEK-OX1R cells (FluoForte); assay type: cell-based; conditions: 1 μM
T1 construct: HEK cells expressing recombinant native OX1R (HEK-OX1R); expressed in transfected cells; host or cells: HEK cells (HEK-OX1R)
T1 sequence (O43613 1-425 A280G): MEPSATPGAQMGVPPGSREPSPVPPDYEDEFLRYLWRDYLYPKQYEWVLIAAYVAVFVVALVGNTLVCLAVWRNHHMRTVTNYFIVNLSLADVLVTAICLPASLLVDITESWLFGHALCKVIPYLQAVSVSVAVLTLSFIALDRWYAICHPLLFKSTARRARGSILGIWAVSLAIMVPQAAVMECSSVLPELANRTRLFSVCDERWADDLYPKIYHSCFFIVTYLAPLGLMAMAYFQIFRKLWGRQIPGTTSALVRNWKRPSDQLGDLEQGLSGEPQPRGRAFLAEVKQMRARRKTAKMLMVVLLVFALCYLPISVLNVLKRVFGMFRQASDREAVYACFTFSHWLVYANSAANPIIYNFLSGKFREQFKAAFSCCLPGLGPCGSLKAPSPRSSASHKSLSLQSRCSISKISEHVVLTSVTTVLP

[2] = system: colon adenocarcinoma HT-29 cells; assay: Apoptosis assay (annexin V-PE binding, Guava nexin kit) in HT-29 cells; assay type: cell-based; conditions: 48 h; orexin-A 1 μM, SB408124 various concentrations
Experimental: FIG. 13: Effect of orexin-A and SB408124 antagonist on apoptosis in OX1R expressing colon adenocarcinoma cells, HT-29. HT-29 cells were challenged with 1 μM orexin-A or various concentration of SB408124 for 48 h. Apoptosis was measured by determination of annexin V-PE binding, and results are expressed as the percentage of apoptotic cells. Results are means±SE of three experiments. ***P<0.001.
Cells growth determination and apoptosis assay: HEK-OX1R cells or colon adenocarcinoma HT-29 cells were seeded, grown and maintained at 37° C. in a humidified 5% CO2/air incubator. After 24 hr culture, cells were treated with or without Orexin-A peptide or SB408124 antagonist, previously dissolved in DMSO, to be tested at the concentration indicated in the figure legends. After 48 hr of treatment, adherent cells were harvested by Trip1E (Life Technologies, Saint Aubin, France) and manually counted. Apoptosis was determined using the Guava PCA system and the Guava nexin kit.

DSS-induced colitis mice = DSS-induced colitis mice model (Disease Activity Index, colon length); assay type: in vivo, Balb/c mice
Source text: FIG. 2: OXA ameliorates the DAI (weight and colitis score) of DSS-induced colitis mice. Mice were orally treated with 5% DSS for 7 days in the presence or in the absence of daily intraperitoneal injection of OxA (0.22 μmoles/kg). Left, determination of gain or loss of weight in the absence of DSS treatment (Control,▴), in the presence of DSS treatment (DSS,▪) and in the presence of DSS associated to OxA treatment (DSS+OxA,●). Right, evaluation of Disease Activity Index (DAI) scored by measuring weight, length of colon, diarrhea and blood presence in the stool in DSS untreated control mice (Control,A), in DSS treated mice (DSS,▪) and in DSS treated mice associated to OxA treatment (DSS+OxA,●).
FIG. 14: Effect of daily ip inoculation of OxA, Suvorexant and Almorexant on the length of colon from DSS—(dextran sulfate sodium) treated mice mimicking the acute ulcerative colitis disease. A. Mice were treated with 5% (w/v) DSS in drinking water and daily injected with 20 μg of OxA (OXA IP), 20 μg of Suvorexant (Suvo) or 20 μg of Almorexant (Almo). Control (wt) or treated DSS mice (DSS) were daily injected with 100 μl PBS. After one week of treatment, mice were sacrificed and the length of colon which represented a good marker of inflammation state, was measured. […] B. quantification of colon length from 5 different DSS-treated mice injected with OxA (DSS+OXA IP), Almorexant (DSS+Almo), Suvorexant (DSS+Suvo) or not injected (WT and DSS). NS, no significant; *, p<0.05; ** p<0.001
Based on these observations, we have investigated the effect of Orexin A (OxA) on acute inflammation in mice treated with Dextran Sulfate Sodium (DSS). OxA was preferentially chosen in these experiments since the presence of two disulphide bridges confers it more stability. DSS induces acute colitis characterized by weight loss, bloody diarrhea, intestinal ulcerations and infiltrations with granulocytes.
DSS-induced colitis mice models: Balb/c mice were orally treated by 5% (w/v) of Dextran Sulfate Sodium (DSS) for 7 days. Orexin treatment was carried out in DSS treated mice by daily intraperitoneal injection of OxA (0.22 μmoles/kg) for 7 days. Weight and colitis symptoms (diarrhea, blood in the stool . . . ) for each mouse was daily measured. After 7 days of treatment, animals were sacrificed and colons were resected to further analyses (size, histological aspect, cytokine assays).
The inventors have thus investigated the effect of daily intraperitoneal inoculation of OxA, Suvorexant and Almorexant in the experimental context of EXAMPLE 1 (colitis). In particular they investigated the effects of the drugs on the length of colon from DSS-(dextran sulfate sodium) treated mice mimicking the acute ulcerative colitis disease. […]

What does the source list for “OxA: neuropeptide, endogenous ligand of OX1R and OX2R, with two disulphide bridges (QPLPDCCRQKTCSCRLYELLHGAGNHAAGILTL; disulfide (positions not given here); ends not checked; also: two disulphide bridges, pairing not given here; UniProt O43612 34-66, looked up)”?
Pancreatic lymphocyte infiltration (anti-CD45 immunohistochemistry) ([1]; OxA 1.40 μmol/Kg, quantitative imaging analysis, 18% in OxA-untreated mice): 6 % of the pancreatic surface; Pancreatic fibrosis on Picrosirius staining ([1]; OxA 1.40 μmol/Kg, quantitative imaging analysis, 40% in OxA-untreated mice): 12 % of the pancreatic surface; Number of acino-ductal metaplasia ([1]; OxA 2 intraperitoneal injections/week at 1.40 μmol/Kg): lower number; Lesions induced by cerulein (histological analysis of the pancreas) ([1]; OxA 2 intraperitoneal injections/week at 1.40 μmol/Kg, 3 weeks of cerulein): improved; Amylase activity in blood samples ([1]; cerulein-induced mice treated with OxA): significantly reduced; Ca2+ mobilization induced in HEK-OX1R cells (OX1R): large and transient; Apoptosis in HT-29 cells [2]: induced an apoptotic effect; Protection from DSS induced acute ulcerative colitis (length of colon) (DSS-induced colitis mice; 5% DSS in drinking water, 20 μg daily ip, one week): protect mice from DSS induced acute ulcerative colitis disease; Disease Activity Index (DAI) scored by measuring weight, length of colon, diarrhea and presence of blood in the stool (DSS-induced colitis mice; 5% DSS orally 7 days, daily intraperitoneal OxA 0.22 μmoles/kg): ameliorates
